Key:
LH and FSH release [1] = test: bioassays / biological equivalence to the natural hormone (not specified further)
LH and FSH release [2] = test: LH- and FSH-releasing activity tested in the radioimmunoassay of Niswender et al.; assay type: in vivo; details: acid addition salt
From the text: (§1) Exp. Biol. Med., 128, 807 (1968).

ovulation [3] = test: modification of the ovulation induction assay in the rat (Arimura et al., Endocrinology 80, 515); assay type: in vivo
From the text: as §1

ovulation [4] = test: induction of ovulation in the hamster (Arimura et al., Science 174, 511); assay type: in vivo
From the text: as §1

Row | Molecule | pharmacological / biological equivalence (LH and FSH release [1]; compared with the decapeptide or the natural hormone) | LH- and FSH-releasing activity compared with the natural hormone (LH and FSH release [2]) | activity in induction of ovulation compared with the natural hormone (ovulation [3]; rat) | time to ovulation following administration (ovulation [3]; rodents such as rats or hamsters: rat) [h] | activity in induction of ovulation compared with the natural hormone (ovulation [4]; hamster) | time to ovulation following administration (ovulation [4]; rodents such as rats or hamsters: hamster) [h] | potency in bioassays compared with the natural product (LH and FSH release [1]; hydrochloride salt)
1 | 5-Oxo-L-Prolyl-L-Histidyl-L-Tryptophyl-L-Seryl-L-Tyrosylglycyl-L-Leucyl-L-Arginyl-L-Prolylglycinamide (I) Zinc Complex [Example 19] | pharmacologically equivalent to the decapeptide |  |  |  |  |  | 
2 | CC(C)C[C@H](NC(=O)CNC(=O)[C@H](Cc1ccc(O)cc1)NC(=O)[C@H](CO)NC(=O)[C@H](Cc1c[nH]c2ccccc12)NC(=O)[C@H](Cc1c[nH]cn1)NC(=O)[C@@H]1CCC(=O)N1)C(=O)N[C@@H](CCCNC(=N)N)C(=O)N1CCC[C@H]1C(=O)NCC(N)=O [I, 5-oxo-L-prolyl-L-histidyl-L-tryptophyl-L-seryl-L-tyrosylglycyl-L-leucyl-L-arginyl-L-prolylglycinamide] |  | as active as the natural hormone | equally active | ≤ 18 | equally active | ≤ 18 | as potent as the latter

From US3947569A, “Process for preparing the releasing hormone of luteinizing hormone (LH) and of follicle stimulating hormone (FSH), salts and compositions thereof, and intermediates therefor” (American Home Products Corporation, priority 1974, dated 1976)
